Patent US8653100B2 (AbbVie Inc., priority 2008, dated 2014)
Where a name gives a salt, the structure may show the parent alone. Read-outs that look alike come from different tables or passages of the source.

Assays:
human GlyT1c = human GlyT1c (Homo sapiens (Human), UniProt P48067); assay: [3H]-Glycine uptake into recombinant CHO cells expressing human GlyT1; assay type: cell-based; conditions: hGlyT1c_5_CHO cells, 200 nM [3H]-glycine
Method in brief: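 hGlyT1c-expressing CHO cells plated at 20,000 cells/well and cultured 24 h; [3H]-glycine incorporation read continuously by solid-phase scintillation for up to 3 h. IC50 from four-parameter logistic fit using the linear uptake phase between 60 and 120 min.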

human GlyT1c transporter = human GlyT1c transporter (Homo sapiens (Human), UniProt P48067); assay: Radioligand binding assay using recombinant CHO cell membranes expressing human GlyT1; conditions: read-out: radioligand binding Kiapp
Method in brief: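 Competition binding of [^3H]-(R)-NPTS (0.5 nM) to CHO membranes expressing human GlyT1c (50 μg/ml protein) in pH 7.5 Hepes/NaCl buffer with 1% DMSO, 1 h at room temperature. Non-specific binding defined with 10 μM Org24598; filtration and scintillation counting, one-site fit, Ki via Cheng-Prusoff.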

[1] = radioligand [3H]-(R)-NPTS (examples 1-19, 22-52, 54-87)
[2] = examples 88-204, radioligand not specified by footnote

Chain of human GlyT1c (P48067 whole entry): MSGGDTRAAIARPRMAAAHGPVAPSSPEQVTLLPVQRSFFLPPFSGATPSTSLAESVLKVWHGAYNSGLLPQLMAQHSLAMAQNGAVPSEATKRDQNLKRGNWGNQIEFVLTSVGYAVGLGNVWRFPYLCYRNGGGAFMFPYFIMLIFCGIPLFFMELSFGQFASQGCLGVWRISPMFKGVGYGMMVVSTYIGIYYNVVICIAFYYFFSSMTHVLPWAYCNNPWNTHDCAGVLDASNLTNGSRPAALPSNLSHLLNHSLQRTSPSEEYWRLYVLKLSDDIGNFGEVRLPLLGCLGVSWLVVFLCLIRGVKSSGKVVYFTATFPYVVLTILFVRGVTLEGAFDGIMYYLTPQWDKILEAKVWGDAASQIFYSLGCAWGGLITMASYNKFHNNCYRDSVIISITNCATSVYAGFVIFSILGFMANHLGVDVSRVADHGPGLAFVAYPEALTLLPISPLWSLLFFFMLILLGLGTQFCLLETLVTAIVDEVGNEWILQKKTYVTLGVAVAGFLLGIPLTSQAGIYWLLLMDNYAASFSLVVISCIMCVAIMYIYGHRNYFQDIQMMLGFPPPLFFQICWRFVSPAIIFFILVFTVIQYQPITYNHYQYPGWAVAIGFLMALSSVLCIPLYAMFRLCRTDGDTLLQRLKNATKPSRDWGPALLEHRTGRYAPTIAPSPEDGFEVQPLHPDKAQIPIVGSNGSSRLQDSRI
Chain of human GlyT1c transporter (P48067 whole entry): as above

SMILES	IC50 (human GlyT1c) [µM]	Ki (human GlyT1c transporter; [1]) [µM]	Ki (human GlyT1c transporter; [2]) [µM]
COc1ccc(S(=O)(=O)NCCOc2ccc3c(c2)C(C2(c4ccc(Cl)cc4)CCC2)NCC3)cc1 (stereo not drawn) [Example 31, N-(2-{1-[1-(4-Chloro-phenyl)-cyclobutyl]-1,2,3,4-tetrahydro-isoquinolin-7-yloxy}-ethyl)-4-methoxy-benzenesulfonamide hydrochloride]	≤ 1	≤ 1	–
O=S(=O)(Cc1ccccc1)NCCOc1ccc2c(c1)C(C1(c3ccc(Cl)cc3)CCC1)NCC2 (stereo not drawn) [Example 32, N-(2-{1-[1-(4-Chloro-phenyl)-cyclobutyl]-1,2,3,4-tetrahydro-isoquinolin-7-yloxy}-ethyl)-C-phenyl-methanesulfonamide hydrochloride]	≤ 10	≤ 10	–
O=S(=O)(NCCOc1ccc2c(c1)C(C1(c3ccc(Cl)cc3)CCC1)NCC2)c1ccccc1 (stereo not drawn) [Example 62, N-(2-{1-[1-(4-Chloro-phenyl)-cyclobutyl]-1,2,3,4-tetrahydro-isoquinolin-7-yloxy}-ethyl)-benzenesulfonamide hydrochloride]	≤ 1	≤ 1	–
CCCS(=O)(=O)NCCOc1ccc2c(c1)C(C1(c3ccc(F)cc3)CCC1)NCC2 (stereo not drawn) [Example 65, N-[2-({1-[1-(4-Fluorophenyl)cyclobutyl]-1,2,3,4-tetrahydroisoquinolin-7-yl}oxy)ethyl]propane-1-sulfonamide hydrochloride]	≤ 0.1	≤ 0.1	–
CCCS(=O)(=O)NCCOc1ccc2c(c1)C(C1(c3ccc(F)cc3)CCC1)N(C(=N)N)CC2 (stereo not drawn) [Example 72, 1-[1-(4-Fluorophenyl)cyclobutyl]-7-{2-[(propylsulfonyl)amino]ethoxy}-3,4-dihydroisoquinoline-2(1H)-carboximidamide acetate]	≤ 1	≤ 10	–
CCCS(=O)(=O)N1CCN(c2cc3c(cc2OC)C(C2(c4ccc(Cl)cc4)CCC2)N(S(=O)(=O)CCC)CC3)CC1 (stereo not drawn) [Example 84, 1-[1-(4-Chlorophenyl)cyclobutyl]-7-methoxy-2-(propylsulfonyl)-6-[4-(propylsulfonyl)-piperazin-1-yl]-1,2,3,4-tetrahydroisoquinoline]	≤ 100	≤ 10	–
O=S(=O)(NCCOc1ccc2c(c1)C(C1(c3cccc(F)c3)CCC1)NCC2)c1cccnc1 (stereo not drawn) [Example 101, N-[2-({1-[1-(3-fluorophenyl)cyclobutyl]-1,2,3,4-tetrahydroisoquinolin-7-yl}oxy)ethyl]pyridine-3-sulfonamide dihydrochloride]	≤ 1	–	≤ 0.1
CC(C)(O)CS(=O)(=O)NCCOc1ccc2c(c1)C(C1(c3ccc(Cl)cc3)CCC1)NCC2 (stereo not drawn) [Example 103, N-[2-({1-[1-(4-Chlorophenyl)cyclobutyl]-1,2,3,4-tetrahydroisoquinolin-7-yl}oxy)ethyl]-2-hydroxy-2-methylpropane-1-sulfonamide hydrochloride]	≤ 0.1	–	≤ 0.1
O=S(=O)(NCCOc1ccc2c(c1)C(C1(c3cccc(F)c3)CCC1)NCC2)c1cccs1 (stereo not drawn) [Example 106, N-[2-({1-[1-(3-Fluorophenyl)cyclobutyl]-1,2,3,4-tetrahydroisoquinolin-7-yl}oxy)ethyl]thiophene-2-sulfonamide hydrochloride]	≤ 10	–	≤ 1
O=S(=O)(NCc1ccc2c(c1)C(C1(c3ccc(Cl)cc3)CCC1)NCC2)c1cccnc1 (stereo not drawn) [Example 108, N-({1-[1-(4-Chlorophenyl)cyclobutyl]-1,2,3,4-tetrahydroisoquinolin-7-yl}methyl)pyridine-3-sulfonamide dihydrochloride]	≤ 10	–	≤ 1
O=S(=O)(CCCOc1ccc2c(c1)C(C1(c3ccc(Cl)cc3)CCC1)NCC2)Nc1ccccc1 (stereo not drawn) [Example 112, 3-({1-[1-(4-Chlorophenyl)cyclobutyl]-1,2,3,4-tetrahydroisoquinolin-7-yl}oxy)-N-phenylpropane-1-sulfonamide hydrochloride]	≤ 10	–	≤ 1
O=S(=O)(Nc1ccccc1Oc1ccc2c(c1)C(C1(c3ccc(Cl)cc3)CCC1)NCC2)c1cccs1 (stereo not drawn) [Example 116, N-[2-({1-[1-(4-Chlorophenyl)cyclobutyl]-1,2,3,4-tetrahydroisoquinolin-7-yl}oxy)phenyl]thiophene-2-sulfonamide hydrochloride]	≤ 100	–	≤ 1
CC(C)NS(=O)(=O)CCCOc1ccc2c(c1)C(C1(c3ccc(Cl)cc3)CCC1)NCC2 (stereo not drawn) [Example 117, 3-({1-[1-(4-Chlorophenyl)cyclobutyl]-1,2,3,4-tetrahydroisoquinolin-7-yl}oxy)-N-(propan-2-yl)propane-1-sulfonamide hydrochloride]	≤ 10	–	≤ 1
CC(C)(C)NS(=O)(=O)CCCOc1ccc2c(c1)C(C1(c3ccc(Cl)cc3)CCC1)NCC2 (stereo not drawn) [Example 118, N-tert-Butyl-3-({1-[1-(4-chlorophenyl)cyclobutyl]-1,2,3,4-tetrahydroisoquinolin-7-yl}oxy)propane-1-sulfonamide hydrochloride]	≤ 10	–	≤ 1
COc1ccccc1NS(=O)(=O)CCCOc1ccc2c(c1)C(C1(c3ccc(Cl)cc3)CCC1)NCC2 (stereo not drawn) [Example 121, 3-({1-[1-(4-Chlorophenyl)cyclobutyl]-1,2,3,4-tetrahydroisoquinolin-7-yl}oxy)-N-(2-methoxyphenyl)propane-1-sulfonamide hydrochloride]	≤ 10	–	≤ 10
CC(C)(C)OC(=O)N1CCN(S(=O)(=O)CCCOc2ccc3c(c2)C(C2(c4ccc(Cl)cc4)CCC2)NCC3)CC1 (stereo not drawn) [Example 123, tert-Butyl 4-{[3-({1-[1-(4-chlorophenyl)cyclobutyl]-1,2,3,4-tetrahydroisoquinolin-7-yl}oxy)propyl]sulfonyl}piperazine-1-carboxylate]	≤ 100	–	≤ 10
CC(C)(C)OC(=O)NCCNS(=O)(=O)CCCOc1ccc2c(c1)C(C1(c3ccc(Cl)cc3)CCC1)NCC2 (stereo not drawn) [Example 126, tert-Butyl [2-({[3-({1-[1-(4-chlorophenyl)cyclobutyl]-1,2,3,4-tetrahydroisoquinolin-7-yl}oxy)propyl]sulfonyl}amino)ethyl]carbamate]	≤ 10	–	≤ 10
NCCNS(=O)(=O)CCCOc1ccc2c(c1)C(C1(c3ccc(Cl)cc3)CCC1)NCC2 (stereo not drawn) [Example 130, N-(2-Aminoethyl)-3-({1-[1-(4-chlorophenyl)cyclobutyl]-1,2,3,4-tetrahydroisoquinolin-7-yl}oxy)propane-1-sulfonamide dihydrochloride]	≤ 100	–	≤ 10
CN(C)CCNS(=O)(=O)CCCOc1ccc2c(c1)C(C1(c3ccc(Cl)cc3)CCC1)NCC2 (stereo not drawn) [Example 132, 3-({1-[1-(4-Chlorophenyl)cyclobutyl]-1,2,3,4-tetrahydroisoquinolin-7-yl}oxy)-N-[2-(dimethylamino)ethyl]propane-1-sulfonamide dihydrochloride]	≤ 10	–	≤ 10
O=S(=O)(CCCOc1ccc2c(c1)C(C1(c3ccc(Cl)cc3)CCC1)NCC2)N1CCNCC1 (stereo not drawn) [Example 133, 1-[1-(4-Chlorophenyl)cyclobutyl]-7-[3-(piperazin-1-ylsulfonyl)propoxy]-1,2,3,4-tetrahydroisoquinoline dihydrochloride]	≤ 10	–	≤ 10
COCCNS(=O)(=O)CCCOc1ccc2c(c1)C(C1(c3ccc(Cl)cc3)CCC1)NCC2 (stereo not drawn) [Example 135, 3-({1-[1-(4-Chlorophenyl)cyclobutyl]-1,2,3,4-tetrahydroisoquinolin-7-yl}oxy)-N-(2-methoxyethyl)propane-1-sulfonamide hydrochloride]	≤ 100	–	≤ 10
CCCS(=O)(=O)NCCOc1ccc2c(c1)C(C1(c3ccc(Cl)c(N)c3)CCC1)NCC2 (stereo not drawn) [Example 142, N-[2-({1-[1-(3-Amino-4-chlorophenyl)cyclobutyl]-1,2,3,4-tetrahydroisoquinolin-7-yl}oxy)ethyl]propane-1-sulfonamide dihydrochloride]	≤ 0.1	–	≤ 0.1
CCCS(=O)(=O)NCCOc1ccc2c(c1)C(C(C)c1ccc(Cl)cc1)NCC2 (stereo not drawn) [Example 145, N-[2-({1-[1-(4-Chlorophenyl)ethyl]-1,2,3,4-tetrahydroisoquinolin-7-yl}oxy)ethyl]propane-1-sulfonamide hydrochloride]	≤ 0.1	–	≤ 0.1
CC(C)(C)CS(=O)(=O)NCCOc1ccc2c(c1)C(C1(c3ccc(Cl)cc3)CCC1)NCC2 (stereo not drawn) [Example 155, N-[2-({1-[1-(4-Chlorophenyl)cyclobutyl]-1,2,3,4-tetrahydroisoquinolin-7-yl}oxy)ethyl]-2,2-dimethylpropane-1-sulfonamide hydrochloride]	≤ 10	–	≤ 0.1
Nc1ccc(S(=O)(=O)NCCOc2ccc3c(c2)C(C2(c4ccc(Cl)cc4)CCC2)NCC3)cn1 (stereo not drawn) [Example 165, 6-Amino-N-[2-({1-[1-(4-chlorophenyl)cyclobutyl]-1,2,3,4-tetrahydroisoquinolin-7-yl}oxy)ethyl]pyridine-3-sulfonamide]	≤ 10	–	≤ 1
O=S(=O)(NCCOc1ccc2c(c1)C(C1(c3ccc(Cl)cc3)CCC1)NCC2)c1c(Cl)nc2sccn12 (stereo not drawn) [Example 167, 6-Chloro-N-[2-({1-[1-(4-Chlorophenyl)cyclobutyl]-1,2,3,4-tetrahydroisoquinolin-7-yl}oxy)ethyl]imidazo[2,1-b][1,3]thiazole-5-sulfonamide hydrochloride]	≤ 10	–	≤ 1
CCCS(=O)(=O)NCCOc1ccc2c(c1)C(C(O)(c1ccc(Cl)cc1)c1ccc(Cl)cc1)NCC2 (stereo not drawn) [Example 176, N-[2-({1-[Bis(4-chlorophenyl)(hydroxy)methyl]-1,2,3,4-tetrahydroisoquinolin-7-yl}oxy)ethyl]propane-1-sulfonamide hydrochloride]	≤ 10	–	≤ 10
